From patent US20250195521A1 (Revolution Medicines, Inc., priority 2020, published 2025)
Where two headings read alike, the source gives them in different places.

Tests used:
[1] = system: AsPC-1 (K-Ras G12D); test: CellTiter-Glo cell viability assay, AsPC-1; assay type: cell-based, human; conditions: Homo sapiens, ASPC1, 120 h, read-out: AsPC-1 Cell Viability IC50
Protocol: Note—The following protocol describes a procedure for monitoring cell viability of K-Ras mutant cancer cell lines in response to a compound of the invention. Other RAS isoforms may be employed, though the number of cells to be seeded will vary based on cell line used.
Test compounds (132.5 nL) were directly dispensed into the assay plates containing cells. […] On day 5, assay plates and their contents were equilibrated to room temperature for approximately 30 minutes. […] Luminescence was measured using the PerkinElmer Enspire. Data were normalized by the following: (Sample signal/Avg. DMSO)*100. The data were fit using a four-parameter logistic fit.

[2] = target: KRAS G13C (Homo sapiens (Human), UniProt P01116+P62937, G13C); test: Ras-Raf disruption/FRET/MOA assay (BRAF RBD, Cyclophilin A); assay type: biochemical; conditions: read-out: KRAS G13C FRET IC50
Chain of KRAS G13C (P01116 other isoform, or with tags, fused parts or gaps G13C): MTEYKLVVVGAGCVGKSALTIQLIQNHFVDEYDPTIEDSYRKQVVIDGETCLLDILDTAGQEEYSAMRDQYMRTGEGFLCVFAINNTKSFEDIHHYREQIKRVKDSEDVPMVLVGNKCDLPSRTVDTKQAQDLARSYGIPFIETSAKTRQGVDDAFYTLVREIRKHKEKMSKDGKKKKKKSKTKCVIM
Chain of KRAS G13C (P62937 whole entry): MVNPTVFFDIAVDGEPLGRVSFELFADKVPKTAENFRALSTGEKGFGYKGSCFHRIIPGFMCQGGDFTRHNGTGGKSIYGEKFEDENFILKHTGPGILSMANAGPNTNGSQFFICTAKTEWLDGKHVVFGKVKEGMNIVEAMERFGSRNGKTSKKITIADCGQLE
How it was run: (§1)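 His6-K-Ras-GMPPNP (12.5 nM), GST-BRAF RBD (50 nM) and tagless Cyclophilin A (25 μM) were combined in 25 mM HEPES pH 7.3 with 100 mM NaCl, 5 mM MgCl2, 0.1% BSA and 0.002% Tween20, with compound as a 10-point 3-fold series from 30 μM final, then incubated 3 h at 25° C.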

[3] = target: KRAS G12S (Homo sapiens (Human), UniProt P01116+P62937, G12S); test: as above; assay type: biochemical; conditions: read-out: KRAS G12S FRET IC50
Chain of KRAS G12S (P01116 other isoform, or with tags, fused parts or gaps G12S): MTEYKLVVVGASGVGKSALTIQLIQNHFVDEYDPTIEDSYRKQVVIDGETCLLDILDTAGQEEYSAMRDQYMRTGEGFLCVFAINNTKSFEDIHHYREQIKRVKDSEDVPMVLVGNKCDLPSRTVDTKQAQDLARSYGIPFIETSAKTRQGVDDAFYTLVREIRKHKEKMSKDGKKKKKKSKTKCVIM
Chain of KRAS G12S (P62937 whole entry): as the sequence (P62937 whole entry) above
How it was run: as §1

[4] = target: NRAS WT (Homo sapiens (Human), UniProt P01111+P62937); test: as above; assay type: biochemical
Chain of NRAS WT (P01111 whole entry): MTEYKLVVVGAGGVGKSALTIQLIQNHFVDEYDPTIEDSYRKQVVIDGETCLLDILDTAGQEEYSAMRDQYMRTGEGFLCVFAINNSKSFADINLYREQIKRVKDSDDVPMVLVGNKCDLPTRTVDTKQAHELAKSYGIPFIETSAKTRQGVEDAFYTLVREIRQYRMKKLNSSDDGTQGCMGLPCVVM
Chain of NRAS WT (P62937 whole entry): as the sequence (P62937 whole entry) above
How it was run: (§2)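 TR-FRET readout: anti-His Eu-W1024 (10 nM) and anti-GST allophycocyanin (50 nM) added after 3 h, 25° C compound incubation, then 1.5 h more. Decrease in FRET ratio versus DMSO wells marks Ras:RAF disruption; IC50 reported.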

[5] = target: KRAS Q61H (Homo sapiens (Human), UniProt P01116+P62937, Q61H); test: as above; assay type: biochemical
Chain of KRAS Q61H (P01116 other isoform, or with tags, fused parts or gaps Q61H): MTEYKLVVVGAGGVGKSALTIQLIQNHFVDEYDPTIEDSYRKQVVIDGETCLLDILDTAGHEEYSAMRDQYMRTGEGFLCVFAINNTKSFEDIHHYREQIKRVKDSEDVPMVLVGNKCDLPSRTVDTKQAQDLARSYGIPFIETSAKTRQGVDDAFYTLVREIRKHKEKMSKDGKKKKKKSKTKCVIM
Chain of KRAS Q61H (P62937 whole entry): as the sequence (P62937 whole entry) above
How it was run: as §1

[6] = target: KRAS G12V (Homo sapiens (Human), UniProt P01116+P62937, G12V); test: as above; assay type: biochemical; conditions: read-out: KRAS G12V FRET IC50
Chain of KRAS G12V (P01116 other isoform, or with tags, fused parts or gaps G12V): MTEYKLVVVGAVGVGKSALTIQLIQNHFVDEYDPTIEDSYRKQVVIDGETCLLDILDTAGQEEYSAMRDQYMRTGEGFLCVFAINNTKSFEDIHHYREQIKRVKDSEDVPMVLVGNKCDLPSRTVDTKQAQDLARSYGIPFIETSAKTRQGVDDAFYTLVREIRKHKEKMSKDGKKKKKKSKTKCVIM
Chain of KRAS G12V (P62937 whole entry): as the sequence (P62937 whole entry) above
How it was run: as §1

[7] = target: KRAS G12C (Homo sapiens (Human), UniProt P01116+P62937, G12C); test: as above; assay type: biochemical; conditions: read-out: KRAS G12C FRET IC50
Chain of KRAS G12C (P01116-2 other isoform, or with tags, fused parts or gaps G12C): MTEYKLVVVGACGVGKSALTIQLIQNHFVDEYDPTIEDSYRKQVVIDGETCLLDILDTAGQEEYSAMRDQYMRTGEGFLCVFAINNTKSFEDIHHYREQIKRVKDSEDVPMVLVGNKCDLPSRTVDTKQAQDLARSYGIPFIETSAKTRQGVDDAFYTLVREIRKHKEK
Chain of KRAS G12C (P62937 whole entry): as the sequence (P62937 whole entry) above
How it was run: as §1

[8] = target: NRAS G12C (Homo sapiens (Human), UniProt P01111+P62937, G12C); test: as above; assay type: biochemical; conditions: read-out: NRAS G12C FRET data IC50
Chain of NRAS G12C (P01111 whole entry G12C): as the sequence (P01111 whole entry) above, with G12C counted along it
Chain of NRAS G12C (P62937 whole entry): as the sequence (P62937 whole entry) above
How it was run: as §2

[9] = target: NRAS Q61R (Homo sapiens (Human), UniProt P01111+P62937, Q61R); test: as above; assay type: biochemical
Chain of NRAS Q61R (P01111 whole entry Q61R): as the sequence (P01111 whole entry) above, with Q61R counted along it
Chain of NRAS Q61R (P62937 whole entry): as the sequence (P62937 whole entry) above
How it was run: as §2

[10] = target: KRAS G13D (Homo sapiens (Human), UniProt P01116+P62937, G13D); test: as above; assay type: biochemical; conditions: read-out: KRAS G13D FRET data IC50
Chain of KRAS G13D (P01116 other isoform, or with tags, fused parts or gaps G13D): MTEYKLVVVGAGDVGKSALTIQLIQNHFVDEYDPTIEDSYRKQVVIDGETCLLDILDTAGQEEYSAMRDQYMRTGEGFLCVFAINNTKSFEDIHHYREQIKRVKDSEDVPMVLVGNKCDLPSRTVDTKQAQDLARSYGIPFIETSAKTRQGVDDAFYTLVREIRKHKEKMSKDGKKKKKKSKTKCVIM
Chain of KRAS G13D (P62937 whole entry): as the sequence (P62937 whole entry) above
How it was run: as §1

[11] = target: NRAS Q61K (Homo sapiens (Human), UniProt P01111+P62937, Q61K); test: as above; assay type: biochemical
Chain of NRAS Q61K (P01111 whole entry Q61K): as the sequence (P01111 whole entry) above, with Q61K counted along it
Chain of NRAS Q61K (P62937 whole entry): as the sequence (P62937 whole entry) above
How it was run: as §2

[12] = target: KRAS WT (Homo sapiens (Human), UniProt P01116+P62937); test: as above; assay type: biochemical; conditions: read-out: KRAS WT FRET data IC50
Chain of KRAS WT (P01116 other isoform, or with tags, fused parts or gaps): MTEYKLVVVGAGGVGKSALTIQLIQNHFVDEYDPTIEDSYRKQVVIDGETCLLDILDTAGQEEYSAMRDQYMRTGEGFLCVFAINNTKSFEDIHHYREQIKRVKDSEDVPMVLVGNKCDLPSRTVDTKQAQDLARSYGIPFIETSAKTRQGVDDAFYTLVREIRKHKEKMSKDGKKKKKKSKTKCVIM
Chain of KRAS WT (P62937 whole entry): as the sequence (P62937 whole entry) above
How it was run: as §1

[13] = target: KRAS G12D (Homo sapiens (Human), UniProt P01116+P62937, G12D); test: as above; assay type: biochemical; conditions: read-out: KRAS G12D FRET IC50
Chain of KRAS G12D (P01116 other isoform, or with tags, fused parts or gaps G12D): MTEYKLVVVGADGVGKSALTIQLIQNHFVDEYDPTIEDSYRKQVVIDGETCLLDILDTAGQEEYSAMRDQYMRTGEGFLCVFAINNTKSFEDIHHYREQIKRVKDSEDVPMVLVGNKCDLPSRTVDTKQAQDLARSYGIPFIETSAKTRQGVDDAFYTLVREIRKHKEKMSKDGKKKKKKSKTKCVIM
Chain of KRAS G12D (P62937 whole entry): as the sequence (P62937 whole entry) above
How it was run: as §1

[14] = system: Capan-1 cells (K-Ras G12V); test: CellTiter-Glo cell viability, Capan-1; assay type: cell-based, human; conditions: Homo sapiens, CAPAN-1, 120 h, K-Ras G12V, 5-day treatment; read-out: Capan-1 Cell Viability IC50
How it was run: (§3)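 Five-day treatment of K-Ras mutant cells with directly dispensed compound; ATP-based luminescence endpoint. Percent of DMSO signal fit to four-parameter logistic curve.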

[15] = system: NCI-H358 (K-Ras G12C); test: CellTiter-Glo cell viability assay, NCI-H358; assay type: cell-based, human; conditions: Homo sapiens, NCI-H358, 120 h, 5-day treatment; read-out: H358 Cell Viability assay data (K-Ras G12C, IC50)
How it was run: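 Five-day compound treatment of NCI-H358 cells, then CellTiter-Glo luminescence, percent of DMSO, four-parameter logistic fit.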

[16] = system: NCI-H358 cells (K-Ras G12C); test: CellTiter-Glo cell viability, NCI-H358; assay type: cell-based, human; conditions: Homo sapiens, NCI-H358, 120 h, K-Ras G12C, 5-day treatment; read-out: H358 Cell Viability IC50
How it was run: as §3

[17] = target: K-Ras G12C(GMP-PNP) binding to BRAF RBD (Homo sapiens (Human), UniProt P01116+P62937, G12C); test: Disruption of BRAF RBD interaction with K-Ras (FRET / MOA assay), K-Ras G12C; assay type: biochemical; conditions: read-out: KRAS G12C FRET IC50
Chain of K-Ras G12C(GMP-PNP) binding to BRAF RBD (P01116 other isoform, or with tags, fused parts or gaps G12C): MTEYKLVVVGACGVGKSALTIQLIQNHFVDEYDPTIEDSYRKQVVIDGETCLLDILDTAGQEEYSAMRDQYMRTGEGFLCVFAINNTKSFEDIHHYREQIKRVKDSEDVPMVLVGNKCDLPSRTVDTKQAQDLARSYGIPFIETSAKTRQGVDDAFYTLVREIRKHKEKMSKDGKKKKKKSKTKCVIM
Chain of K-Ras G12C(GMP-PNP) binding to BRAF RBD (P62937 whole entry): as the sequence (P62937 whole entry) above
How it was run: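 TR-FRET readout: after 3 h compound incubation at 25 °C, anti-His Eu and anti-GST allophycocyanin (10 and 50 nM final) added for a further 1.5 h. Dilution series was 10-point, 3-fold, top 30 μM final. Ras–cyclophilin A ternary complex formation blocks the BRAF RBD interaction; IC50 derived from reduced FRET ratio relative to DMSO.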

[18] = system: AsPC-1 (K-Ras G12D); test: Potency assay: pERK; assay type: cell-based, human; conditions: Homo sapiens, ASPC1, read-out: pERK EC50
Protocol: The purpose of this assay is to measure the ability of test compounds to inhibit K-Ras in cells. […] This procedure measures a decrease in cellular pERK in response to test compounds. The procedure described below in NCI-H358 cells is applicable to K-Ras G12C.
NCI-H358 cells were grown and maintained using media and procedures recommended by the ATCC. On the day prior to compound addition, cells were plated in 384-well cell culture plates (40 μl/well) and grown overnight in a 37° C., 5% CO2 incubator. Test compounds were prepared in 10, 3-fold dilutions in DMSO, with a high concentration of 10 mM. On the day of assay, 40 nL of test compound was added to each well of cell culture plate using an Echo550 liquid handler (LabCyte®). Concentrations of test compound were tested in duplicate. After compound addition, cells were incubated 4 hours at 37° C., 5% CO2. Following incubation, culture medium was removed and cells were washed once with phosphate buffered saline.
In some experiments, cellular pERK level was determined using the AlphaLISA SureFire Ultra p-ERK1/2 Assay Kit (PerkinElmer). Cells were lysed in 25 μL lysis buffer, with shaking at 600 RPM at room temperature. Lysate (10 μL) was transferred to a 384-well Opti-plate (PerkinElmer) and 5 μL acceptor mix was added. After a 2-hour incubation in the dark, 5 μL donor mix was added, plate was sealed, and incubated 2 hours at room temperature. Signal was read on an Envision plate reader (PerkinElmer) using standard AlphaLISA settings. Analysis of raw data was carried out in Excel (Microsoft) and Prism (GraphPad). Signal was plotted vs. the decadal logarithm of compound concentration, and IC50 was determined by fitting a 4-parameter sigmoidal concentration response model.
In other experiments, cellular pERK was determined by In-Cell Western. Following compound treatment, cells were washed twice with 200 μL tris buffered saline (TBS) and fixed for 15 minutes with 150 μL 4% paraformaldehyde in TBS. Fixed cells were washed 4 times for 5 minutes with TBS containing 0.1% Triton X-100 (TBST) and then blocked with 100 μL Odyssey blocking buffer (LI-COR) for 60 minutes at room temperature. Primary antibody (PERK, CST-4370, Cell Signaling Technology) was diluted 1:200 in blocking buffer, and 50 μL was added to each well and incubated overnight at 4° C. Cells were washed 4 times for 5 minutes with TBST. Secondary antibody (IR-800CW rabbit, LI-COR, diluted 1:800) and DNA stain DRAQ5 (LI-COR, diluted 1:2000) were added and incubated 1-2 hours at room temperature. Cells were washed 4 times for 5 minutes with TBST. Plates were scanned on a Li—COR Odyssey CLx Imager. Analysis of raw data was carried out in Excel (Microsoft) and Prism (GraphPad). Signal was plotted vs. the decadal logarithm of compound concentration, and IC50 was determined by fitting a 4-parameter sigmoidal concentration response model.

Row | Structure (SMILES) | EC50 [18] [µM] | IC50 [1] [µM] | other results
1 | CCn1c(-c2cccnc2[C@H](C)OC)c2c3cc(ccc31)-c1cc(O)cc(c1)C[C@H](NC(=O)[C@H](C(C)C)N(C)C(=O)N1CCN(C(=O)[C@@H]3CN3)C(=O)C1)C(=O)N1CCC[C@H](N1)C(=O)OCC(C)(C)C2 (atropisomer, axis not shown) [Example 194] |  |  | IC50 ([1]; K-Ras G12D, 5-day treatment): > 10 µM
2 | CCn1c(-c2cccnc2[C@H](C)OC)c2c3cc(ccc31)-c1csc(n1)C[C@H](NC(=O)[C@H](C(C)C)N(C)C(=O)N(C)[C@H]1CCCN(C)C1)C(=O)N1CCC[C@H](N1)C(=O)OCC(C)(C)C2 [Compound A588] |  |  | IC50 [2]: 0.1 to 1 µM; IC50 [3]: 0.1 to 1 µM; IC50 [4]: 0.1 to 1 µM; IC50 [5]: 0.1 to 1 µM; IC50 [6]: 1 to 10 µM; IC50 [7]: 0.1 to 1 µM; IC50 [8]: 0.1 to 1 µM; IC50 [9]: 1 to 10 µM; IC50 [10]: 0.1 to 1 µM; IC50 [11]: 0.1 to 1 µM; IC50 [12]: 0.1 to 1 µM; IC50 [13]: 0.1 to 1 µM; IC50 [14]: 0.1 to 1 µM; IC50 [15]: 0.01 to 0.1 µM; IC50 [16]: 0.01 to 0.1 µM; IC50 [17]: 0.1 to 1 µM
3 | CCn1c(-c2cccnc2[C@H](C)OC)c2c3cc(ccc31)-c1cc(O)cc(c1)C[C@H](NC(=O)[C@H](C(C)C)N(C)C(=O)[C@@H](C)N(C)C(=O)[C@H]1CN1)C(=O)N1CCC[C@H](N1)C(=O)OCC(C)(C)C2 [Example 114] | < 5 | 1 to 10 | 
4 | CCn1c(-c2cccnc2[C@H](C)OC)c2c3cc(ccc31)-c1cc(O)cc(c1)C[C@H](NC(=O)[C@H](C(C)C)N(C)C(=O)CN(C)C(=O)[C@H]1N[C@H]1C1CC1)C(=O)N1CCC[C@H](N1)C(=O)OCC(C)(C)C2 [Example 134] | < 5 | 1 to 10 | 
5 | CCn1c(-c2cccnc2[C@H](C)OC)c2c3cc(ccc31)-c1cc(O)cc(c1)C[C@H](NC(=O)[C@H](C(C)C)N(C)C(=O)CNC(=O)[C@H]1CN1)C(=O)N1CCC[C@H](N1)C(=O)OCC(C)(C)C2 [Example 140] | < 5 | 1 to 10 | 
6 | CCn1c(-c2cccnc2[C@H](C)OC)c2c3cc(ccc31)-c1cc(O)cc(c1)C[C@H](NC(=O)[C@H](C(C)C)N(C)C(=O)N1CCN(C(=O)[C@H]3CN3)C(=O)C1)C(=O)N1CCC[C@H](N1)C(=O)OCC(C)(C)C2 [Example 143] |  |  | IC50 ([1]; K-Ras G12D, 5-day treatment): > 10 µM
7 | CCn1c(-c2cccnc2[C@H](C)OC)c2c3cc(ccc31)-c1cc(O)cc(c1)C[C@H](NC(=O)[C@H](C(C)C)N(C)C(=O)CNC(=O)[C@@H]1CN1)C(=O)N1CCC[C@H](N1)C(=O)OCC(C)(C)C2 [Example 147] | < 5 | 1 to 10 | 
8 | CCn1c(-c2cccnc2[C@H](C)OC)c2c3cc(ccc31)-c1cc(O)cc(c1)C[C@H](NC(=O)[C@H](C(C)C)N(C)C(=O)[C@H]1CCCN1C(=O)[C@@H]1CN1)C(=O)N1CCC[C@H](N1)C(=O)OCC(C)(C)C2 [Example 151] | < 5 | 1 to 10 | 
9 | CCn1c(-c2cccnc2[C@H](C)OC)c2c3cc(ccc31)-c1cc(O)cc(c1)C[C@H](NC(=O)[C@H](C(C)C)N(C)C(=O)[C@H]1CCCN1C(=O)[C@H]1CN1)C(=O)N1CCC[C@H](N1)C(=O)OCC(C)(C)C2 [Example 152] | < 5 | 1 to 10 | 
10 | CCn1c(-c2cccnc2[C@H](C)OC)c2c3cc(ccc31)-c1cc(O)cc(c1)C[C@H](NC(=O)[C@H](C(C)C)N(C)C(=O)[C@H]1CC[C@@H](C)N1C(=O)[C@@H]1CN1)C(=O)N1CCC[C@H](N1)C(=O)OCC(C)(C)C2 [Example 153] | < 5 | 1 to 10 | 
11 | CCn1c(-c2cccnc2[C@H](C)OC)c2c3cc(ccc31)-c1cc(O)cc(c1)C[C@H](NC(=O)[C@H](C(C)C)N(C)C(=O)[C@H]1CC[C@@H](C)N1C(=O)[C@H]1CN1)C(=O)N1CCC[C@H](N1)C(=O)OCC(C)(C)C2 [Example 154] | < 5 | 1 to 10 | 
12 | CCn1c(-c2cccnc2[C@H](C)OC)c2c3cc(ccc31)-c1cc(O)cc(c1)C[C@H](NC(=O)[C@H](C(C)C)N(C)C(=O)CN(C)C(=O)[C@H]1CN1CCO)C(=O)N1CCC[C@H](N1)C(=O)OCC(C)(C)C2 (stereo partly drawn) [Example 161] | < 5 | 1 to 10 | 
